From BindingDB's records for doi:10.1021/acs.jmedchem.6b00705 (Leiden Institute of Chemistry, 2016)
pIC50: −log10 of the molar value.

Legend:
[1] = target: Proteasome subunit beta type-2 (Homo sapiens, UniProt P49721); assay: Inhibition of catalytic activity of constitutive proteasome 20s subunit beta2 in human Raji cells incubated for 1 hr by BODIPY(FL)-LU-112 probe based competitive activity based protein profiling assay
[2] = Inhibition of catalytic activity of immunoproteasome 20s subunit beta2 in human Raji cells incubated for 1 hr by BODIPY(FL)-LU-112 probe based competitive activity based protein profiling assay

pIC50 [1] | pIC50 [2] | SMILES
7.22 | – | CC(C)C[C@H](NC(=O)[C@H](Cc1ccccc1)NC(=O)[C@H](CCc1ccccc1)NC(=O)[C@H](Cc1ccccc1)N=[N+]=[N-])C(=O)[C@@]1(C)CO1
7.34 | – | CC(C)C[C@H](NC(=O)[C@H](Cc1ccccc1)NC(=O)[C@H](CC1CCC(C)CC1)NC(=O)[C@H](Cc1ccccc1)N=[N+]=[N-])C(=O)[C@@]1(C)CO1 (some centres not stated)
< 6.00 | < 6.00 | CC1=C(C(=O)N[C@H](C)C(=O)N[C@@H](Cc2c[nH]c3ccccc23)C(=O)N[C@@H](CC2CCCCC2)C(=O)[C@@]2(C)CO2)Cc2ccccc21
< 4.00 | < 4.00 | C[C@H](NC(=O)[C@H](Cc1ccccc1)NC(=O)[C@H](C[C@H]1CC[C@H](c2ccccc2)CC1)NC(=O)[C@H](Cc1ccccc1)N=[N+]=[N-])C(=O)[C@@]1(C)CO1
6.96 | – | COc1ccc(C[C@H](NC(=O)[C@H](Cc2ccccc2)N=[N+]=[N-])C(=O)N[C@@H](Cc2ccccc2)C(=O)N[C@@H](CC(C)C)C(=O)[C@@]2(C)CO2)cc1
< 4.00 | 6.52 | C[C@H](NC(=O)[C@H](Cc1ccccc1)NC(=O)[C@H](C[C@H]1CC[C@@H](c2ccccc2)CC1)NC(=O)[C@H](Cc1ccccc1)N=[N+]=[N-])C(=O)[C@@]1(C)CO1
< 4.00 | < 4.00 | CC(C)C[C@H](NC(=O)CN1CCOCC1)C(=O)N[C@@H](C[C@H]1CC[C@H](C2CCCCC2)CC1)C(=O)N[C@@H](Cc1ccccc1)C(=O)N[C@@H](C)C(=O)[C@@]1(C)CO1
7.18 | – | CC(C)C[C@H](NC(=O)[C@H](Cc1ccccc1)NC(=O)[C@H](Cc1ccccc1)NC(=O)[C@H](Cc1ccccc1)N=[N+]=[N-])C(=O)[C@@]1(C)CO1 [(S)-2-azido-N-((S)-1-((S)-1-((S)-4-methyl-1-((R)-2-methyloxiran-2-yl)-1-oxopentan-2-ylamino)-1-oxo-3-phenylpropan-2-ylamino)-1-oxo-3-phenylpropan-2-yl)-3-phenylpropanamide]
